Assays:
Type in all cases: cell-based
[1] = tested on: human primary monocytes; experiment: static adhesion of fMLP-stimulated monocytes to ICAM-1; conditions: CTRL 100; for fMLP-triggered static adhesion to ICAM-1: monocytes; for fMLP-induced adhesion to ICAM-1: 40 μM P1 or P1-TKIP, 100 μM AG490, 200 μM WHI-P154, 1 hour, 50 nM fMLP 60 sec
Method: We investigated the functional effect of PTPRG activation on integrin activation and mediated adhesion by chemoattractants in human primary monocytes and PMNs in a static and flow adhesion assays. Briefly, human primary monocytes or polymorphonuclear cells were suspended at 5×10^6/ml in standard adhesion buffer. Adhesion assays were performed on 18-well glass slides coated with 1 mg/ml human fibrinogen or with 1 μg/ml human ICAM-1 in PBS; 20 μl of cell suspension were added to the coated wells and stimulated for 1 min at 37° C. with 5 μl of fMLP, 0.05 μM final concentration. After rapid washing, adherent cells were fixed in ice-cold 1.5% glutaraldehyde in PBS, and still images of adherent cells in 0.2 mm^2 fields were acquired al 20× phase contrast magnification, NA 0.40, with a charge-coupled device camera (ICD-42B; Ikegami) connected to an inverted microscope (IX50; Olympus). Image acquisition and computer-assisted enumeration of adherent cells were performed with ImageJ (National Institute of Health).
We then investigated the functional effect of TAT-ICD on integrin activation and mediated adhesion by chemoattractants. Static adhesion assays were performed as described in Example 2. […] Data are mean number of adherent cells in 5 experiments in triplicate.
To evaluate whether JAK2 mediates chemoattractant-induced adhesion of human monocytes to beta-2 integrin substrates human monocytes were treated control buffer or P1 or with the three JAK inhibitors. Briefly, human monocytes were treated with buffer (CTRL=control), or 40 μM P1 or P1-TKIP peptides, 100 μM AG490 or 200 μM WHI-P154 for 1 hour at 37° C. and stimulated with 50 nM fMLP for 60 sec.; data are mean and standard deviation (SD) of 6 experiments in triplicate.
Human primary monocytes were isolated from buffy coats from healthy donors and pre-incubated for 30 minutes at room temperature with our without 0.075 micromolar PTPX. Standard adhesion assays on ICAM-1 coated glass slides. Cell suspensions were added to the coated wells for 1 minute, stimulated for 1 minute at 37° C. with […] fMLP. Non-adherent cells were washed away and adherent cells were fixed in ice-cold 1.5% glutaraldehyde in PBS and adherent cells were counted using computer assisted automatic quantification. Data are from a representative experiment and are the mean and standard deviation of 24 measurements per condition (Table 35).

[2] = tested on: U251 GBM cells; experiment: MTT survival assay, U251 GBM cells
Method: Briefly, U251 GBM cells, normal primary cortical murine neurons and a mixed culture of murine microglia and astrocytes were treated for 24, 48 and 72 hours with no treatment (control), delivery peptide (P1 or TAT) or increasing concentrations of P1-WD or TAT-ICD. Cell viability and survival was measured using the MTT assay, a colorimetric assay for assessing cell metabolic activity set up under conditions where the absorption reflects the number of viable cells present (Table 21 and 22) and expressed as relative absorption at 570 nm. Early apoptosis was measured using VYBRANT DyeCycle Violet stain (Molecular Probes), a DNA-selective, cell membrane-permeant dye that can distinguish the compacted state of the nuclear chromatin in apoptotic cells as determined by flow cytometry and presented as the percent of cells that are apoptotic (Table 23 and 24). The actual number of cells following treatment with TAT-ICD or TAT alone (Table 25) was determined using flow cytometry compared to an input of 5,000 cells at time zero. To confirm apoptosis the TUNEL labeling assay, which detects DNA strand breaks in apoptotic cells by fluorescence microscopy, was also used to examine U251 cells treated with the PTPRG WD. Briefly, the assay used an optimized terminal transferase ([…]) to label 3′OH ends in genomic DNA with TMR-dUTP, thus allowing the measurement and quantification of cell death by apoptosis. U251 cells were pretreated for 1, 3 and 6 hours with 50 μM P1-WD. Then cells were fixed and permeabilized, incubated with TUNEL reaction mixture for 1 h at RT, and then stained with DAPI (for nuclei detection) and with Alexa670-Phalloidin (to detect actin in cell membranes). After the staining steps, cells were visualized with a confocal microscope.

[3] = tested on: human primary monocytes; experiment: underflow adhesion of monocytes on E-selectin/ICAM-1 (BioFlux); conditions: for arrest 1 sec, flow assay / arrest 10 sec, flow assay / rolling cells, flow assay: Table 3, concentration not given; for arrest 1 sec, flow assay: CTRL 24; for rolling cells, flow assay: CTRL 50
Method: Flow-adhesion assays were also performed to test the ability of the P1-WD peptide to inhibit adhesion of human monocytes under flow conditions. Briefly, Human primary monocytes were suspended at 1×10^6/ml in standard adhesion. Cell behavior in underflow conditions was analyzed with the BioFlux 200 system (Fluxion Biosciences). 48-well plate microfluidics were first co-coated overnight at room temperature with 2.5 μg/ml human E-selectin and 5 μg/ml human ICAM-1 in PBS. Immediately before use, microfluidic channels were washed with PBS and then coated with 10 nM fMLP in PBS for 3 h at room temperature. After extensive washing of microfluidics with adhesion buffer, cells were fluxed at 2 dyne/cm^2 wall shear stress and the behavior of interacting cells was digitally recorded with a fast CCD videocamera (25 frames/s). Single areas of 0.2 mm^2 were recorded for at least 120 s. Interactions of 40 ms or longer were considered significant and scored. Cells that remained firmly adherent for at least 1 s were considered fully arrested. Cells arrested for at least 1 s and then detached, or for 10 s and then remained adherent, were scored separately and plotted as independent groups. Interacting cells behaviors were automatically quantified with BeQuanti.
Briefly, human monocytes were treated with buffer (CTRL), 50 μM TAT peptides, or 0.5 μM TAT-ICD for 1 hour at 37° C. Data are percentages of rolling and arrested cells for the indicated times over total interacting cells; mean values of 4 experiments.
Briefly, Human monocytes were treated with buffer (CTRL=control), 100 μM AG490, 40 μM P1 or P1-TKIP peptides or 200 μM WHI-P154 for 1 hour at 37° C. Shown are percentages of rolling and arrested cells for the indicated times over total interacting cells; mean values of 5 experiments; errors bars are SDs.

[4] = 50 μM TAT peptides or 0.5 μM TAT-ICD, 1 hour at 37° C., CTRL 12
[5] = 50 μM TAT peptides or 0.5 μM TAT-ICD, 1 hour at 37° C., CTRL 22
[6] = 50 μM TAT peptides or 0.5 μM TAT-ICD, 1 hour at 37° C., CTRL 66
[7] = 100 μM AG490, 40 μM P1 or P1-TKIP, 200 μM WHI-P154, 1 hour, CTRL 26
[8] = 100 μM AG490, 40 μM P1 or P1-TKIP, 200 μM WHI-P154, 1 hour, CTRL 34
[9] = 100 μM AG490, 40 μM P1 or P1-TKIP, 200 μM WHI-P154, 1 hour, CTRL 40
[10] = P1 or P1-WD 50 uM, 24 hours, control 821
[11] = P1 or P1-WD 50 uM, 48 hours, control 1943
[12] = P1 or P1-WD 50 uM, 72 hours, control 2556

| Compound | fMLP-triggered static adhesion to ICAM-1 ([1]; 0.5 μM) | fMLP-triggered static adhesion to ICAM-1 ([1]; 1 μM) | rolling cells over total interacting cells, flow assay [3, 4] [%] | cells arrested 1 sec over total interacting cells, flow assay [3, 5] [%] | cells arrested 10 sec over total interacting cells, flow assay [3, 6] [%] | fMLP-induced adhesion to ICAM-1 [1] [%] | cells arrested 10 sec over total interacting cells, flow assay [3, 7] [%] | cells arrested 1 sec over total interacting cells, flow assay [3, 8] [%] | rolling cells over total interacting cells, flow assay [3, 9] [%] | MTT relative absorption at 570 nM [2, 10] | MTT relative absorption at 570 nM [2, 11] | MTT relative absorption at 570 nM [2, 12] | arrest 1 sec, flow assay [3] | arrest 10 sec, flow assay ([3]; CTRL 26) | rolling cells, flow assay [3] | other results |
| --- | --- | --- | --- | --- | --- | --- | --- | --- | --- | --- | --- | --- | --- | --- | --- | --- |
| TAT-ICD: fusion recombinant protein SEQ ID 5: PTPRG intracellular domain aa 797-1445 fused to 13 aa TAT sequence | 14 | 10 | 79 | 10 | 11 | – | – | – | – | – | – | – | – | – | – | fMLP-triggered static adhesion to ICAM-1 ([1]; 0.01 μM): 48; fMLP-triggered static adhesion to ICAM-1 ([1]; 0.05 μM): 36; fMLP-triggered static adhesion to ICAM-1 ([1]; 0.10 μM): 30; MTT relative absorption at 570 nM ([2]; TAT-ICD 0.5 uM, 24 hrs, Control 821): 568; MTT relative absorption at 570 nM ([2]; TAT-ICD 0.5 uM, 48 hrs, Control 1943): 969; MTT relative absorption at 570 nM ([2]; TAT-ICD 0.5 uM, 72 hrs, Control 2556): 1630; MTT relative absorption at 570 nM ([2]; TAT-ICD 1.0 uM, 24 hrs, Control 821): 353; MTT relative absorption at 570 nM ([2]; TAT-ICD 1.0 uM, 48 hrs, Control 1943): 526; MTT relative absorption at 570 nM ([2]; TAT-ICD 1.0 uM, 72 hrs, Control 2556): 830; MTT relative absorption at 570 nM ([2]; TAT-ICD 2.0 uM, 24 hrs, Control 821): 244; MTT relative absorption at 570 nM ([2]; TAT-ICD 2.0 uM, 48 hrs, Control 1943): 236; MTT relative absorption at 570 nM ([2]; TAT-ICD 2.0 uM, 72 hrs, Control 2556): 279 |
| COc1cc2ncnc(Nc3ccc(O)c(Br)c3)c2cc1OC [WHI-P154] | – | – | – | – | – | 6.4 | 14 | 20 | 66 | – | – | – | – | – | – | – |
| P1: Penetratin delivery peptide, 16 aa RQIKIWFQNRRMKWKK (SEQ ID 4), control [reference compound] | – | – | – | – | – | 101 | 30 | 26 | 44 | 600 | 1743 | 2294 | 32 | 30 | 38 | fMLP-triggered static adhesion to ICAM-1 ([1]; control peptide, concentration not given): 102 |
| TAT (GRKKRRQRRRPPQ; listed as Homo sapiens) [reference compound] | 100 | 110 | 14 | 25 | 61 | – | – | – | – | – | – | – | – | – | – | MTT relative absorption at 570 nM ([2]; TAT 50 uM, 24 hrs, Control 821): 825; MTT relative absorption at 570 nM ([2]; TAT 50 uM, 48 hrs, Control 1943): 1654; MTT relative absorption at 570 nM ([2]; TAT 50 uM, 72 hrs, Control 2556): 2068 |
| N#C/C(=C/c1ccc(O)c(O)c1)C(=O)NCc1ccccc1 [AG490] | – | – | – | – | – | 23.5 | 10 | 20 | 70 | – | – | – | – | – | – | – |
| P1-WD: fusion Trojan peptide SEQ ID 3: Penetratin, glycine, PTPRG wedge domain aa 831-856; RQIKIWFQNRRMKWKKGKQFVKHIGELYSNNQHGFSEDFEEVQ (listed as Homo sapiens) | – | – | – | – | – | – | – | – | – | 411 | 733 | 1060 | 9 | 11 | 80 | fMLP-triggered static adhesion to ICAM-1 ([1]; P1-WD 10 micromolar): 78; fMLP-triggered static adhesion to ICAM-1 ([1]; P1-WD 25 micromolar): 40; fMLP-triggered static adhesion to ICAM-1 ([1]; P1-WD 50 micromolar): 19; MTT relative absorption at 570 nM ([2]; P1-WD 10 uM, 24 hours, control 821): 656; MTT relative absorption at 570 nM ([2]; P1-WD 10 uM, 48 hours, control 1943): 1400; MTT relative absorption at 570 nM ([2]; P1-WD 10 uM, 72 hours, control 2556): 1593; MTT relative absorption at 570 nM ([2]; P1-WD 25 uM, 24 hours, control 821): 469; MTT relative absorption at 570 nM ([2]; P1-WD 25 uM, 48 hours, control 1943): 820; MTT relative absorption at 570 nM ([2]; P1-WD 25 uM, 72 hours, control 2556): 1281 |
